Where a SMILES comes first, the peptide text is derived from it. Bridges are numbered along the chain shown (N, C = ends). [ ]: non-standard residue; d: D form. pGlu = O=C1CC[C@@H](C(=O)O)N1
Key:
[1] = Thermal stability in Tris-acetate-EDTA buffer of pH 8.3 at 100 degC measured upto 12 hrs by reverse-phase HPLC analysis; format: physicochemical; conditions: pH 8.3, 12 h
[2] = Toxicity in human RBC assessed as hemolytic activity at 50 uM measured after 1 hr by spectrophotometric analysis; format: cell-based, Erythrocyte; conditions: erythrocyte, 1 h, 50 µM
[3] = Toxicity in Thamnaconus modestus RBC assessed as hemolytic activity at 0.08 to 50 uM measured after 1 hr by spectrophotometric analysis; format: cell-based; conditions: erythrocyte
[4] = system: RAW264.7; assay: Cytotoxicity against mouse RAW264.7 cells assessed as cell viability at 10 or 40 ug/ml measured after 24 hrs by WST assay; format: cell-based; conditions: raw264.7, 24 h
[5] = system: RAW264.7; assay: Toxicity in mouse RAW264.7 cells assessed as in induction of Nitric oxide production at 10 or 40 ug/ml measured after 24 hrs by Griess reaction method; format: cell-based; conditions: raw264.7, 24 h
[6] = Cytotoxicity against rat Ac2F cells at 30 uM; format: cell-based
[7] = system: Mus musculus; assay: Toxicity in mouse assessed as aggressiveness at 40 mg/kg, ip after 12 hrs; format: organism-based; conditions: in vivo
[8] = system: Mus musculus; assay: Toxicity in mouse assessed as stiff tail at 40 mg/kg, ip after 12 hrs; format: organism-based; conditions: in vivo
[9] = system: Mus musculus; assay: Toxicity in mouse assessed as paralysis at 40 mg/kg, ip after 12 hrs; format: organism-based; conditions: in vivo
[10] = system: Mus musculus; assay: Toxicity in mouse assessed as convulusion at 40 mg/kg, ip after 12 hrs; format: organism-based; conditions: in vivo
[11] = system: Mus musculus; assay: Toxicity in mouse assessed as mortality at 40 mg/kg, ip after 7 days; format: organism-based; conditions: in vivo, 168 h
[12] = system: Mus musculus; assay: Toxicity in mouse assessed as appearance changes at 40 mg/kg, ip after 7 days; format: organism-based; conditions: in vivo, 168 h
[13] = system: Mus musculus; assay: Toxicity in mouse assessed as behavior changes at 40 mg/kg, ip after 7 days; format: organism-based; conditions: in vivo, 168 h
[14] = Toxicity in human RBC assessed as hemolytic activity at 2 uM measured after 1 hr by spectrophotometric analysis; format: cell-based; conditions: erythrocyte

In the case of `CC[C@H](C)[C@H](NC(=O)[C@@H](NC(=O)[C@H](Cc1ccc(O)cc1)NC(=O)[C@@H]1CSSC[C@@H]2NC(=O)[C@@H]3CCCN3C(=O)[C@H](CC(N)=O)NC(=O)[C@H](Cc3ccccc3)NC(=O)[C@H](CCC(=O)O)NC(=O)[C@H](C(C)C)NC(=O)[C@H](CC(=O)O)NC(=O)[C@@H]3CSSC[C@H](NC(=O)[C@H]([C@@H](C)O)NC(=O)[C@H](CC(C)C)NC(=O)[C@@H]4CCCN4C(=O)[C@@H]4CCCN4C(=O)[C@H](CSSC[C@H](NC(=O)[C@H](CC(=O)O)NC(=O)[C@@H]4CCC(=O)N4)C(=O)N4CCC[C@H]4C(=O)NCC(=O)N[C@@H](CCC(=O)O)C(=O)NCC(=O)N[C@@H](CCC(=O)O)C(=O)N[C@@H](CCC(N)=O)C(=O)N3)NC2=O)C(=O)N[C@@H]([C@@H](C)CC)C(=O)N2CCC[C@H]2C(=O)NCC(=O)N[C@@H](CC(=O)O)C(=O)N2CCC[C@H]2C(=O)N[C@@H](Cc2ccc(O)cc2)C(=O)NCC(=O)N[C@@H]([C@@H](C)CC)C(=O)N1)[C@@H](C)CC)C(=O)O` ([pGlu]DCPGEGEQCDVEFNPCCPPLTCIPGDPYGICYII-OH; disulfide 3-18, 10-23, 17-32), the Stability [1] was “Stable”, the Activity [2] was “Non-toxic” and the Activity [3] was “Non-toxic”. The Activity [4] was “Non-toxic”, the Activity [5] was “Non-toxic” and the Activity [6] was “Non-toxic”. For the same molecule, the Activity [7] was “Non-toxic”, the Activity [8] was “Non-toxic” and the Activity [9] was “Non-toxic”. For the same molecule, the Activity [10] was “Non-toxic”, the Activity [11] was “Non-toxic” and the Activity [12] was “Non-toxic”. For the same molecule, the Activity [13] was “Non-toxic”.
For `CC[C@H](C)[C@H](NC(=O)CN)C(=O)NCC(=O)N[C@@H](C)C(=O)N[C@H](C(=O)N[C@@H](CC(C)C)C(=O)N[C@@H](CCCCN)C(=O)N[C@H](C(=O)N[C@@H](CC(C)C)C(=O)N[C@H](C(=O)N[C@H](C(=O)NCC(=O)N[C@@H](CC(C)C)C(=O)N1CCC[C@H]1C(=O)N[C@@H](C)C(=O)N[C@@H](CC(C)C)C(=O)N[C@H](C(=O)N[C@@H](CO)C(=O)N[C@@H](Cc1c[nH]c2ccccc12)C(=O)N[C@H](C(=O)N[C@@H](CCCCN)C(=O)N[C@@H](CCCNC(=N)N)C(=O)N[C@@H](CCCCN)C(=O)N[C@@H](CCCNC(=N)N)C(=O)N[C@@H](CCC(N)=O)C(=O)N[C@@H](CCC(N)=O)C(N)=O)[C@@H](C)CC)[C@@H](C)CC)[C@@H](C)O)[C@@H](C)O)C(C)C)C(C)C` [MELITTIN], the Activity [14] was “Toxic”.
